Data set [1] has as its system db/db mice (idiopathic type II diabetes model mice). Description: Efficacy test in db/db mouse model with diabetic nephropathy. It is filed as in vivo. The following applies: for mALB compared to the model control group / urine albumin-to-creatinine ratio (UACR) compared to the model control group / urine amount compared to the model control group: after 4 weeks of administration, in words; for UACR / Urine creatinine / Urine weight / mALB: db/db mice, 15 mg/kg i.g. once daily, Mean±SEM. The source says:
Test Example 2: Efficacy Test in db/db Mouse Model with Diabetic Nephropathy
Thirty db/db mice (idiopathic type II diabetes model mice) were selected and divided into a model control group, a positive control group, and a treatment group, and 10 db/m mice were selected as a control group.
The mice were given the compounds by oral gavage (i.g) once daily over 4 consecutive weeks. The administration information is shown in detail in Table 2.
Urine albumin was used as a main measure. The data obtained were analyzed statistically using EXCEL and IBM SPSS Statistics 22.0.
All metrology data are expressed as Mean±SEM s. The parameters before and after administration were plotted for the different groups of animals using the software Graph Pad Prism 8. Data were analyzed using the statistical software SPSS 22.0. A Levene's test of homogeneity of variance was performed on the parameters. When the variance was homogenous (P≥0.05), the Dunnett's & LSD method from the one-way analysis of variance (ANOVA) was used to compare the differences between the groups. When the variance was not homogenous (P<0.05), the Mann-Whitney U test (the M-W method) from the Kruskal-Wallis H test (the K-W method) was used to compare the differences between the groups. For animal survival, the log-rank test from the product-limit method (the K-M method) was used to compare the differences between the groups.

Data set [2] in a line: Influencing factor stability study (open containers; light, high temperature, high humidity; 30 days). It is filed as physicochemical.
Data set [3] in a line: Long-term/accelerated stability study (sealed in aluminum foil bags, 25° C./60% RH and 40° C./75% RH). In kind it is physicochemical. The settings on record: for long-term/accelerated stability (conclusion): storage under long-term accelerated conditions for 6 months.
The nature of data set [4]: DVS (dynamic vapor sorption) hygroscopicity test. It is filed as physicochemical. The source says: According to the description of hygroscopicity characteristics and the definitions of hygroscopic weight gains in “General Rule 9103, Guidelines for Hygroscopicity” in the Chinese Pharmacopoeia, Volume IV, 2015 Edition, • deliquescent: sufficient water is absorbed to form a liquid; • extremely hygroscopic: the hygroscopic weight gain is not less than 15%; • hygroscopic: the hygroscopic weight gain is less than 15% but not less than 2%; • slightly hygroscopic: the hygroscopic weight gain is less than 2% but not less than 0.2%; • nonhygroscopic or practically nonhygroscopic: the hygroscopic weight gain is less than 0.2%.
TGA refers to thermogravimetric analysis: The analysis was performed using a METTLER TOLEDO TGA 2 thermogravimetric analyzer, with a temperature ramp rate of 10° C./min, specific temperature ranges shown in corresponding patterns (mostly 30-350° C.), and a nitrogen purge speed of 50 mL/min. DVS refers to dynamic vapor sorption: The analysis was performed using SMS DVS Advantage; at 25° C., the humidity was changed as follows: 50%-95%-0%-95%-50%, in steps of 10% (5% for the last step) (specific humidity ranges are shown in corresponding patterns, and those listed here were used in most cases); the criterion was dm/dt being not greater than 0.002%.

[5] abbreviates: 4 weeks, ** P<0.01 vs model control group.
Setting [6] is: open container, 40° C., 1 month.
Setting [7] is: open container, 40° C., 14 days.
The mark [8] stands for this setting: open container, 60° C., 1 month.
Setting [9] is: open container, 60° C., 14 days.
[10] abbreviates: open container, 75% RH, 1 month.
[11] abbreviates: open container, 75% RH, 14 days.
Where [12] appears, read: open container, 92.5% RH, 1 month.
[13] abbreviates: open container, 92.5% RH, 7 days.
[14] abbreviates: open container, 92.5% RH, 14 days.
The mark [15] stands for this setting: open container, light exposure (4500 Lux), 1 month.
Setting [16] is: open container, light exposure (4500 Lux), 7 days.
Where [17] appears, read: open container, light exposure (4500 Lux), 14 days.
Where [18] appears, read: 25° C.-60% RH, sealed aluminum foil bag, 1 month.
The mark [19] stands for this setting: 25° C.-60% RH, sealed aluminum foil bag, 2 months.
[20] abbreviates: 25° C.-60% RH, sealed aluminum foil bag, 3 months.
[21] abbreviates: 25° C.-60% RH, sealed aluminum foil bag, 6 months.
Where [22] appears, read: 40° C.-75% RH, sealed aluminum foil bag, 1 month.
The mark [23] stands for this setting: 40° C.-75% RH, sealed aluminum foil bag, 2 months.
The mark [24] stands for this setting: 40° C.-75% RH, sealed aluminum foil bag, 3 months.
Setting [25] is: 40° C.-75% RH, sealed aluminum foil bag, 6 months.

Regarding `CCOc1ncc(C)c2c1[C@H](c1ccc(C#N)cc1OC)C(C(N)=O)=C(C)N2` [Finerenone, reference compound], in data set [1], the “mALB compared to the model control group” value is “tended to be lower”, the “urine albumin-to-creatinine ratio (UACR) compared to the model control group” value is recorded as “decreased somewhat but is not significantly different” and the “urine amount compared to the model control group” value was “tended to be lower”. Further, in data set [1] (0 weeks), the UACR is 5538.19 ± 342.61 µg/mg, the Urine creatinine is 0.37 ± 0.02 μmol/24 h, the Urine weight is 2.86 ± 0.17 mL and the mALB came to 226.68 ± 13.90 μg/24 h. In data set [1] (4 weeks), the Urine creatinine is 2.11 ± 0.44 μmol/24 h, the Urine weight came out at 11.96 ± 2.89 mL and the mALB is listed as 1,013.76 ± 245.40 μg/24 h. This molecule registered a UACR in data set [1] (setting [5]) of 4294.14 ± 464.95 µg/mg.

For `[2H]C([2H])([2H])Oc1cc(C#N)ccc1[C@@H]1C(C(N)=O)=C(C)Nc2c(C)cnc(OCC)c21` [Compound 1], in data set [1], the “mALB compared to the model control group” value was “tended to be lower”, the “urine albumin-to-creatinine ratio (UACR) compared to the model control group” value is listed as “statistically significantly smaller” and the “urine amount compared to the model control group” value is on record as “tended to be lower”. Besides, in data set [1] (0 weeks), the UACR amounted to 5039.91 ± 334.27 µg/mg, the Urine creatinine is 0.40 ± 0.01 μmol/24 h, the Urine weight stood at 2.72 ± 0.14 mL and the mALB worked out at 224.72 ± 13.19 μg/24 h. Moreover, in data set [1] (4 weeks), the Urine creatinine came to 2.23 ± 0.39 μmol/24 h, the Urine weight worked out at 10.41 ± 2.29 mL and the mALB came to 870.27 ± 189.40 μg/24 h. Moreover, the UACR in data set [1] (setting [5]) was 3301.13 ± 330.31** μg/mg.

On to `O=C(O)/C=C\C(=O)O.[2H]C([2H])([2H])Oc1cc(C#N)ccc1[C@@H]1C(C(N)=O)=C(C)Nc2c(C)cnc(OCC)c21` [crystal form α of maleate], for which the Crystal form entry is listed as “Crystal form α of maleate” in data set [2] (0 days); “No change” in data set [2] (setting [6]); “No change” in data set [2] (open container, 40° C., 7 days); “No change” in data set [2] (setting [7]); “No change” in data set [2] (setting [8]); “No change” in data set [2] (open container, 60° C., 7 days). Further, the Crystal form entry in data set [2] (setting [9]) is “No change”; in data set [2] (setting [10]) it was “No change”; in data set [2] (open container, 75% RH, 7 days), “No change”; in data set [2] (setting [11]) it was “No change”; in data set [2] (setting [12]) it was “No change”; in data set [2] (setting [13]), “No change”. Also, the Crystal form result in data set [2] (setting [14]), in data set [2] (setting [15]), in data set [2] (setting [16]), in data set [2] (setting [17]), in data set [3] (setting [18]) and in data set [3] (setting [19]) was “No change” each time. The Crystal form result in data set [3] (setting [20]), in data set [3] (setting [21]), in data set [3] (setting [22]), in data set [3] (setting [23]), in data set [3] (setting [24]) and in data set [3] (setting [25]) was “No change” in each case. Also, the Purity in data set [2] (0 days) is 99.6%; in data set [2] (setting [6]) it was 97.4%; in data set [2] (open container, 40° C., 7 days) it was 98.9%; in data set [2] (setting [7]) it was 98.4%; in data set [2] (setting [8]), 92.2%; in data set [2] (open container, 60° C., 7 days) it was 98.6%. Besides, the Purity in data set [2] (setting [9]) worked out at 97.0%; in data set [2] (setting [10]), 99.8%; in data set [2] (open container, 75% RH, 7 days) it was 99.8%; in data set [2] (setting [11]), 99.8%; in data set [2] (setting [12]) it was 99.8%; in data set [2] (setting [13]) it was 99.8%. The Purity in data set [2] (setting [14]) worked out at 99.8%; in data set [2] (setting [15]), 98.2%; in data set [2] (setting [16]) it was 99.2%; in data set [2] (setting [17]), 98.7%. Further, the “stability in the influencing factor experiments (conclusion)” value in data set [2] (at a high temperature) is reported as “slightly degraded”. For the same molecule, the “Purity (%)” value in data set [3] (0 days (initial)) was determined as 99.6%; in data set [3] (setting [18]), 99.8%; in data set [3] (setting [19]), 99.8%; in data set [3] (setting [20]), 99.8%; in data set [3] (setting [21]), 99.6%; in data set [3] (setting [22]), 99.6%. The “Purity (%)” value came out at 99.5% in data set [3] (setting [23]), 99.3% in data set [3] (setting [24]) and 98.8% in data set [3] (setting [25]). The “long-term/accelerated stability (conclusion)” value in data set [3] is “good physical and chemical stability”.

In the case of `Cl.[2H]C([2H])([2H])Oc1cc(C#N)ccc1[C@@H]1C(C(N)=O)=C(C)Nc2c(C)cnc(OCC)c21` [crystal form I of hydrochloride], the hygroscopic weight gain entry is “about 13.7%” in data set [4] (accelerated experimental conditions, 70% RH); “about 37.5%” in data set [4] (extreme conditions, 90% RH); “about 3.6%” in data set [4] (normal storage conditions, 25° C. and 60% RH). The “crystal form re-identified after the DVS test” value in data set [4] (after DVS test) is “did not change”. In addition, the “Purity (%)” value came out at 99.8% in data set [3] (0 days (initial)); 99.3% in data set [3] (setting [18]); 99.3% in data set [3] (setting [19]); 99.3% in data set [3] (setting [20]); 99.3% in data set [3] (setting [21]); 99.2% in data set [3] (setting [22]). The “Purity (%)” value is recorded as 98.9% in data set [3] (setting [23]), 98.8% in data set [3] (setting [24]) and 98.8% in data set [3] (setting [25]). In addition, the Crystal form entry in data set [3] (setting [18]), in data set [3] (setting [19]), in data set [3] (setting [20]), in data set [3] (setting [21]), in data set [3] (setting [22]) and in data set [3] (setting [23]) was “No change” in each case. The Crystal form entry in data set [3] (setting [24]) and in data set [3] (setting [25]) was “No change” throughout. In data set [3], the “long-term/accelerated stability (conclusion)” value is “good physical and chemical stability”.

The values are drawn from patent publication US20260265249A1, “PHARMACEUTICALLY ACCEPTABLE SALT AND CRYSTAL FORM OF 1,4-DIHYDRO-1,6-NAPHTHYRIDINE AMIDE COMPOUND AND PREPARATION METHOD THEREFOR” (JIANGSU HENGRUI PHARMACEUTICALS CO., LTD., priority 2023, published 2026).
